Measurements from ChEMBL document CHEMBL1909046, “DrugMatrix in vitro pharmacology data”.

Key:
[1] = target: Mitogen-activated protein kinase 14 (Homo sapiens, UniProt Q16539); parameters: species or system Escherichia coli;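 also: inhibition of p38alpha enzyme activity in a biochemical kinase assay, with myelin basic protein serving as substrate; in other assays of this panel Not Active means under 50% inhibition at 10 µM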
[2] = DRUGMATRIX: Atrial Natriuretic Factor (ANF) radioligand binding (ligand: [125I] ANF (rat)); format: cell membranes, Cavia porcellus, Dunkin-Hartley, Adrenal gland, Membrane; conditions: Not Active = under 50% inhibition at 10 µM
[3] = target: Cytochrome P450 2D6 (Homo sapiens, UniProt P10635); conditions: bti-tn-5b1-4; also: in other assays of this panel Not Active means under 50% inhibition at 10 µM
[4] = target: Mitogen-activated protein kinase 3 (Homo sapiens, UniProt P27361); experiment: DRUGMATRIX: Protein Serine/Threonine Kinase, ERK1 enzyme inhibition (substrate: Myelin Basic Protein); parameters: species or system Escherichia coli; conditions: Not Active = under 50% inhibition at 10 µM
[5] = target: T1, D(4) dopamine receptor (Homo sapiens, UniProt P21917); experiment: DRUGMATRIX: Dopamine D4.2 radioligand binding (ligand: [3H] Spiperone); format: cell membranes, CHO-K1, Membrane; conditions: cho-k1; Not Active = under 50% inhibition at 10 µM
T1 sequence (P21917 whole entry): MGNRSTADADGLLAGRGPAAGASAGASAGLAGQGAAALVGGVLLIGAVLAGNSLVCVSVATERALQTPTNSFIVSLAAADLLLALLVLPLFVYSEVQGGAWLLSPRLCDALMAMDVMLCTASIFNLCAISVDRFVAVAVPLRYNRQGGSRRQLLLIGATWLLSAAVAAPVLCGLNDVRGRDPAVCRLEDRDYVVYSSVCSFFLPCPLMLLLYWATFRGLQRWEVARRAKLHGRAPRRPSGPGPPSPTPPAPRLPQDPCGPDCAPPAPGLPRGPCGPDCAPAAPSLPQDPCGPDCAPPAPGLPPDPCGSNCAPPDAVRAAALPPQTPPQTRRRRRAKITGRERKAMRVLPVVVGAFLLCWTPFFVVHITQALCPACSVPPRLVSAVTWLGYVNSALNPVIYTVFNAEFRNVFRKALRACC

[6] = target: T2, Alpha-1A adrenergic receptor (Rattus norvegicus, UniProt P43140); experiment: DRUGMATRIX: Alpha-1A adrenergic receptor radioligand binding (ligand: prazosin); format: cell membranes, Wistar, Submaxillary gland, Membrane; conditions: Not Active = under 50% inhibition at 10 µM
T2 sequence (P43140 whole entry): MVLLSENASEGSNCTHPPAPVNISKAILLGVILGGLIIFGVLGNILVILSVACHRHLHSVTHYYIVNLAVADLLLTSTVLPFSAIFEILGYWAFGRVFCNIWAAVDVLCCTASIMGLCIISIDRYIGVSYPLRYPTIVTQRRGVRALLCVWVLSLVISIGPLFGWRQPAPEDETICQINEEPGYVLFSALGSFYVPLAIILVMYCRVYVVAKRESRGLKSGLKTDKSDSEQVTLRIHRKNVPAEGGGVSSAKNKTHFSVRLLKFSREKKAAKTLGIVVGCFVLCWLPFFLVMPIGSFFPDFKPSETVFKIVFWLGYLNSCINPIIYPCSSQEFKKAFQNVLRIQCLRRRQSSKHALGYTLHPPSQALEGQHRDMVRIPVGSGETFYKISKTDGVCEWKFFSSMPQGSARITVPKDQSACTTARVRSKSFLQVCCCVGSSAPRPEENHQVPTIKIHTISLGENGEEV

[7] = target: T3, C-C chemokine receptor type 4 (Homo sapiens, UniProt P51679); format: cell membranes, Membrane; conditions: chem-1; also: in other assays of this panel Not Active means under 50% inhibition at 10 µM
T3 sequence (P51679 whole entry): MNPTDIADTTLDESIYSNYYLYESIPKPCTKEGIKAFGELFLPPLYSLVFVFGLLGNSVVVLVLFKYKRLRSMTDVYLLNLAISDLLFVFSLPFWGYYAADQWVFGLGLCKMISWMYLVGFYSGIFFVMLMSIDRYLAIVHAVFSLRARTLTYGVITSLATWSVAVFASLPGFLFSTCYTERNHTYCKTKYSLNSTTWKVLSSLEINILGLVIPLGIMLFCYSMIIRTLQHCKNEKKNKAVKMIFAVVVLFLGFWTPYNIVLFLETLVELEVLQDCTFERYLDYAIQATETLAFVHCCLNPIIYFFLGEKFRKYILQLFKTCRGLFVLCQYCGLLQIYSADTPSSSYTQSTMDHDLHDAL

[8] = target: T4, Neuropeptide Y receptor type 1 (Homo sapiens, UniProt P25929); format: cell membranes, Membrane; conditions: sk-n-mc; also: in other assays of this panel Not Active means under 50% inhibition at 10 µM
T4 sequence (P25929 whole entry): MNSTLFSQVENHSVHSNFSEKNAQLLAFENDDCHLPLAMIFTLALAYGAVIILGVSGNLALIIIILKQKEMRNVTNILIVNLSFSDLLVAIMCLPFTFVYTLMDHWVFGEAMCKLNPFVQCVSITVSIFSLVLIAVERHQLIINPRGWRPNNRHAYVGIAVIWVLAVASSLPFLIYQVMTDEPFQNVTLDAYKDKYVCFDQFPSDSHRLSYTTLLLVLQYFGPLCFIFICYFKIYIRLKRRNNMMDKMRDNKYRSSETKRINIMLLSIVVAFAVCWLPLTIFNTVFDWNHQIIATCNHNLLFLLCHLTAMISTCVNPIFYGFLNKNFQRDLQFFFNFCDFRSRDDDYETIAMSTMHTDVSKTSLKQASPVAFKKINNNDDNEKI

Sequence of Cytochrome P450 2D6 (P10635 whole entry): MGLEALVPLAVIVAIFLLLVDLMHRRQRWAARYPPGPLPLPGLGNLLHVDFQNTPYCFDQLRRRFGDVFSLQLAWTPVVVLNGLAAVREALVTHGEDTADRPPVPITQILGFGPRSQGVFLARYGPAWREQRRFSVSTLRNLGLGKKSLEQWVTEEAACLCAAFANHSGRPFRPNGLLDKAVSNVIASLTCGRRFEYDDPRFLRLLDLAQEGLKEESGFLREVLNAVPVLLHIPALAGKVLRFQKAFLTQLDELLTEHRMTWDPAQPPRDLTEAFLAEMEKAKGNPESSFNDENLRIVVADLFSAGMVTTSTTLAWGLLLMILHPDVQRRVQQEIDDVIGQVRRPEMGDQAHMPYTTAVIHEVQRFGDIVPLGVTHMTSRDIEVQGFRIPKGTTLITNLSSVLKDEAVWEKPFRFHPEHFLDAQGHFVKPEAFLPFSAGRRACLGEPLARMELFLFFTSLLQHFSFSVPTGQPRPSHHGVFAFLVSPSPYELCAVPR
Sequence of Mitogen-activated protein kinase 14 (Q16539 whole entry): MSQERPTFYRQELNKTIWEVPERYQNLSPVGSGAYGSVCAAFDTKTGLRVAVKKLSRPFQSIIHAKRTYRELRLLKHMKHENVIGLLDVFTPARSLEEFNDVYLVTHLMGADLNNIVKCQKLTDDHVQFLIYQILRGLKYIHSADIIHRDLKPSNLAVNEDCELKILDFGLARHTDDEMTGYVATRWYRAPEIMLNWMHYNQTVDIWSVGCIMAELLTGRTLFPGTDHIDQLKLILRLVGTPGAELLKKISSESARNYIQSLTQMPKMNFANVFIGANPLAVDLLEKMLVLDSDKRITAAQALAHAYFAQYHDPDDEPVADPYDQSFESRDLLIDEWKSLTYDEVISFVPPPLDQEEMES
Sequence of Mitogen-activated protein kinase 3 (P27361 whole entry): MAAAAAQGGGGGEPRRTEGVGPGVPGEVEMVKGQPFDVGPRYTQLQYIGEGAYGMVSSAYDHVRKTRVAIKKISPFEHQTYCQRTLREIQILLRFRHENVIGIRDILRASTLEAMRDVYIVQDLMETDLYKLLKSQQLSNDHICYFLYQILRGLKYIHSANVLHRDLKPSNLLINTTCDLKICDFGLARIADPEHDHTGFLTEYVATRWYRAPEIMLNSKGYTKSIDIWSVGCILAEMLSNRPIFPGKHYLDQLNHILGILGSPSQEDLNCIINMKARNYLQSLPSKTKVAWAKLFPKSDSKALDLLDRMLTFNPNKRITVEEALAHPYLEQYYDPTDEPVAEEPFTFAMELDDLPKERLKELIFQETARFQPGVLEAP

Nn1nnc2ccccc21
IC50 [1]: Not Active
IC50 [2]: Not Active
Ki [2]: Not Active
IC50 [3]: Not Active
Ki [3]: Not Active
IC50 [4]: Not Active
IC50 [5]: Not Active
IC50 [6]: Not Active
IC50 [7]: Not Active
IC50 [8]: Not Active

CC[C@]1(O)CC[C@H]2[C@@H]3CCC4=CCCC[C@@H]4[C@H]3CC[C@@]21C
IC50 [1]: Not Active
IC50 [2]: Not Active
Ki [2]: Not Active
IC50 [3]: Not Active
Ki [3]: Not Active
IC50 [4]: Not Active
IC50 [5]: Not Active
IC50 [6]: Not Active
IC50 [7]: Not Active
IC50 [8]: Not Active

N[C@@H](Cc1ccc(F)cc1)C(=O)O
IC50 [1]: Not Active
IC50 [2]: Not Active
Ki [2]: Not Active
IC50 [4]: Not Active
IC50 [5]: Not Active
IC50 [6]: Not Active
IC50 [7]: Not Active
IC50 [8]: Not Active

CCOC(=O)[C@H](CCc1ccccc1)N[C@@H](C)C(=O)N1Cc2ccccc2C[C@H]1C(=O)O
IC50 [1]: Not Active
IC50 [2]: Not Active
Ki [2]: Not Active
IC50 [3]: Not Active
Ki [3]: Not Active
IC50 [4]: Not Active
IC50 [5]: Not Active
IC50 [6]: Not Active
IC50 [7]: Not Active
IC50 [8]: Not Active

O=C(c1ccccc1Cl)N1CCC(Cc2ccccc2)CC1
IC50 ([1]; read-out: IC50): 833 nM
IC50 [2]: Not Active
Ki [2]: Not Active
IC50 [3]: Not Active
Ki [3]: Not Active
IC50 [4]: Not Active
IC50 [5]: Not Active
IC50 [6]: Not Active
IC50 [7]: Not Active
IC50 [8]: Not Active

CCOC(=O)[C@H](CCc1ccccc1)N[C@@H](C)C(=O)N1CCC[C@H]1C(=O)O
IC50 [1]: Not Active
IC50 [2]: Not Active
Ki [2]: Not Active
IC50 [3]: Not Active
Ki [3]: Not Active
IC50 [4]: Not Active
IC50 [5]: Not Active
IC50 [6]: Not Active
IC50 [7]: Not Active
IC50 [8]: Not Active

Clc1cc2c(cc1Cl)Oc1cc(Cl)c(Cl)cc1O2 [2,3,7,8-TETRACHLORODIBENZO-P-DIOXIN]
IC50 [1]: Not Active
IC50 [2]: Not Active
Ki [2]: Not Active
IC50 [3]: Not Active
Ki [3]: Not Active
IC50 [4]: Not Active
IC50 [5]: Not Active
IC50 [6]: Not Active
IC50 [7]: Not Active
IC50 [8]: Not Active

C=C1/C(=C\C=C2/CCC[C@]3(C)[C@@H]([C@H](C)CCCC(C)C)CC[C@@H]23)C[C@@H](O)C[C@@H]1O [ALFACALCIDOL]
IC50 [1]: Not Active
IC50 [2]: Not Active
Ki [2]: Not Active
IC50 [3]: Not Active
Ki [3]: Not Active
IC50 [4]: Not Active
IC50 [5]: Not Active
IC50 [6]: Not Active
IC50 [7]: Not Active
IC50 [8]: Not Active

CCCCCC[C@H]1C(=O)O[C@H](C)[C@H](NC(=O)c2cccc(NC=O)c2O)C(=O)O[C@@H](C)[C@@H]1OC(=O)CC(C)C [ANTIMYCIN A]
IC50 [1]: Not Active
IC50 [2]: Not Active
Ki [2]: Not Active
IC50 [3]: Not Active
Ki [3]: Not Active
IC50 [4]: Not Active
IC50 [5]: Not Active
IC50 [6]: Not Active
IC50 [7]: Not Active
IC50 [8]: Not Active

C[C@@H]1CC[C@H]2[C@@H](C)C(=O)O[C@@H]3O[C@@]4(C)CC[C@@H]1[C@]32OO4 [ARTEMISININ]
IC50 [1]: Not Active
IC50 [2]: Not Active
Ki [2]: Not Active
IC50 [4]: Not Active
IC50 [5]: Not Active
IC50 [6]: Not Active
IC50 [7]: Not Active
IC50 [8]: Not Active

CO[C@H]1[C@@H](O)[C@H](N)[C@@H](O[C@H]2O[C@H]([C@H](C)N)CC[C@H]2N)[C@H](O)[C@@H]1N(C)C(=O)CN [ASTROMICIN]
IC50 [1]: Not Active
IC50 [2]: Not Active
Ki [2]: Not Active
IC50 [3]: Not Active
Ki [3]: Not Active
IC50 [4]: Not Active
IC50 [5]: Not Active
IC50 [6]: Not Active
IC50 [7]: Not Active
IC50 [8]: Not Active
